Measurements published in patent US20030181520A1, “Methods of reversing and preventing cardiovascular pathologies” (priority 2001, published 2003).

Tests used:
[1] = tested on: coronary artery opening at the site of angioplasty; assay: Clinical trial: minimal luminal area by intravascular ultrasound (IVUS) six months after angioplasty; format: in vivo, human; details: for mean minimal luminal area: IVUS six months after angioplasty
Description: (§1) The primary endpoint of the trial was the size of the lumenal area (coronary artery opening), as measured by intravascular ultrasound (IVUS), six months after angioplasty. […] Angiographic restenosis was also assessed using a standard definition of restenosis as measured by quantitative coronary angiography (QCA). […] An IVUS analysis of reference vessels (blood vessels of coronary arteries that were not targets of angioplasty procedures) was also carried out. The data indicated lumen volumes increased for patients who received either of the top two doses of Compound A. In contrast, patients on placebo had decreased lumen volumes, consistent with the expected progression of atherosclerosis.
A study was conducted to determine whether Compound A reduces restenosis as assessed by intravascular ultrasound (IVUS) when administered for 2 weeks before and 4 weeks after percutaneous coronary intervention (PCI) with or without stent placement. A multi-center, double-blind placebo-controlled randomized trail with 5 treatment groups:
(§2) Treatment of the above was given 2 weeks prior to and 4 weeks after PCI. PCI was performed on greater than or equal to 1 native artery with greater than or equal to 1 de novo lesion of greater than or equal to 50%. All PCI procedures (with or without stent placement) and post-PCI management were performed according to recognized current clinical practice. 0.3 mg of nitroglycerin(Ntg) intracoronary (IC) were administered at every angiogram. Quantitative Coronary Angiography (QCA) measurements were taken prior to-PCI, 10 minutes post-PCI, and final follow-up (approximately 6 months).
(§3) IVUS examinations were conducted at 30 Mhz using 3.5 French CVIS catheters. All IVUS examinations were preceded by IC Ntg 0.3 mg. Results of these examinations are found in FIGS. 1-6.

stented arteries = assay: Clinical trial: angiographic restenosis by quantitative coronary angiography (QCA); format: in vivo, human; details: for restenosis rate reduction: relative to placebo (37.5 percent); for rate of angiographic restenosis in stented arteries: QCA; for restenosis after PCI: treatment 2 weeks before and 4 weeks after PCI
Description: as §1, §2

[2] = tested on: reference vessels (coronary arteries that were not targets of angioplasty); assay: Clinical trial: IVUS analysis of lumen volume of reference vessels (non-PCI site); format: in vivo, human; details: for lumen volume change of reference vessels: IVUS, non-PCI site
Description: as §1, §3

VCAM-1 = VCAM-1 gene expression inhibition; format: cell-based; details: compound A at low micromolar concentrations, probucol at very high concentrations
MCP-1 = MCP-1 gene expression inhibition; format: cell-based; details: compound A at low micromolar concentrations, probucol at very high concentrations
QTc interval = assay: Clinical trial: QTc interval; format: in vivo, human
[3] = Antioxidant activity (preclinical comparison)
[4] = Anti-inflammatory activity (preclinical comparison)

CC(C)(Sc1cc(C(C)(C)C)c(O)c(C(C)(C)C)c1)Sc1cc(C(C)(C)C)c(O)c(C(C)(C)C)c1 [Probucol, probucol, reference compound]
mean minimal luminal area ([1]; probucol 500 mg twice a day for six weeks): 3.69 mm2 | restenosis rate reduction (stented arteries; probucol 500 mg twice a day): 32% | rate of angiographic restenosis in stented arteries (stented arteries; probucol 500 mg twice a day): 25.5% | restenosis after PCI (stented arteries): reduce restenosis | lumen volume change of reference vessels ([2]; probucol 500 mg twice a day): −0.2 mm3 | inhibition of VCAM-1 gene expression (VCAM-1): inactive | inhibition of MCP-1 gene expression (MCP-1): inactive

CC(C)(Sc1cc(C(C)(C)C)c(O)c(C(C)(C)C)c1)Sc1cc(C(C)(C)C)c(OC(=O)CCC(=O)O)c(C(C)(C)C)c1 [Compound A, Butanedioic acid, mono [4-[[1-[[3,5-bis(1,1-dimethylethyl)-4-hydroxyphenyl]thio]-1-methylethyl]thio]2,6-bis(1,1-dimethylethyl)phenyl]ester]
mean minimal luminal area ([1]; 70 mg once a day for six weeks): 2.75 mm2 | mean minimal luminal area ([1]; 140 mg once a day for six weeks): 3.17 mm2 | mean minimal luminal area ([1]; 280 mg once a day for six weeks, p<0.05 vs. placebo): 3.36 mm2 | luminal area at the site of angioplasty ([1]; at two weeks, p<0.05): dose response improvement | rate of angiographic restenosis in stented arteries (stented arteries; combined Compound A arms (70, 140, 280 mg once a day)): 26.0% | restenosis rate reduction (stented arteries; combined Compound A arms): 31% | restenosis after PCI (stented arteries): reduce restenosis | lumen volume change of reference vessels ([2]; 70 mg once a day): −2.4 mm3 | lumen volume change of reference vessels ([2]; 140 mg once a day): +3.5 mm3 | lumen volume change of reference vessels ([2]; 280 mg once a day): +1.8 mm3 | lumen dimensions of the reference segments ([2]; in contrast to probucol): surprising improvement | prolongation of the QTc interval (QTc interval): without causing prolongation | antioxidant properties [3]: equipotent to probucol | inhibition of VCAM-1 gene expression (VCAM-1): very active inhibitor | inhibition of MCP-1 gene expression (MCP-1): very active inhibitor | activity as an anti-inflammatory agent [4]: consistently very effective
